We go through 9 compounds from US11878967B2, “Crystalline forms of 1-(4-{[6-amino-5-(4-phenoxy-phenyl)-pyrimidin-4-ylamino]-methyl}-4-fluoro-piperidin-1-yl)-propenone, salt forms thereof, and processes to obtain” (Merck Patent GmbH, priority 2018, dated 2024).

Converted amounts (≈) assume the structure as drawn. Counter-ions that a name gives are not always drawn. Like-named read-outs stand apart in the source and are kept apart here.

Format in all cases: physicochemical
Data set [1] is described as follows: Thermodynamic solubility (24 h) at 37° C. of free base forms. As to conditions: for solubility thermodynamic at 24 h: 37 °C, thermodynamic from solid. The procedure:
Approximately 10-20 mg of 1-(4-{[6-Amino-5-(4-phenoxy-phenyl)-pyrimidin-4-ylamino]-methyl}-4-fluoro-piperidin-1-yl)-propenone were weighed into a 4 mL glass vial. 1 mL of FaSSIF medium (pH 6.5) or USP Phosphate buffer pH 7.4 was added and the suspension was shaken for 24 h at 450 rpm at 37° C. After 1 h, 6 h and after 24 h the vials were checked for presence of undissolved compound and the pH was measured. If necessary, the pH was adjusted after 1 h and 6 h. The solid liquid separation was carried out using 1 mL syringe and 0.2 μm syringe filter. Clear filtrate was analysed by HPLC after suitable dilution to measure the amount of API dissolved.

Data set [2] can be described thus: Mini-dissolution in FaSSIF medium pH 6.5 at 37° C. Particulars: for Dissolution levels in FaSSIF pH 6.5: 37° C.; for Dissolution level (2 h) in FaSSIF, factor higher than A1: compared to crystalline neat form A1. The method, then:
Approximately 10-20 mg of 1-(4-{[6-Amino-5-(4-phenoxy-phenyl)-pyrimidin-4-ylamino]-methyl}-4-fluoro-piperidin-1-yl)-propenone were weighed into glass vials. 7 mL of FaSSIF medium (pH 6.5, prewarmed to 37° C.) were added and the suspension was shaken at 450 rpm at 37° C. After 30 min, 60 min and 120 min, 1 mL suspension was withdrawn and filtered through a 0.2 μm syringe filter. Clear filtrate was analysed by HPLC after suitable dilution to measure the amount of API dissolved.

The nature of data set [3]: Water Vapour Sorption isotherm (25° C.), DVS system from SMS. The procedure: DSC scan of form A1 was acquired on a Mettler-Toledo DSC 1 with a heating rate of 5 K/min, using nitrogen purge gas at 50 mL/min. TGA scan of form A1 was acquired on a Mettler-Toledo TGA 851 with a heating rate of 5 K/min, using nitrogen purge gas at 50 mL/min. […] Eur. Criteria (section 5.11.). Water Vapour Sorption isotherm was acquired on a DVS-Intrinsic system from SMS. […] Dissolution level of form A1 in Fasted-State Simulated Intestinal Fluid [FaSSIF, pH 6.5] at 37° C. was determined to be approx. 17 μg/mL after 2 h (see example 7). […]
All forms were characterized according to standard methods which are found in e.g. Rolf Hilfiker, ‘Polymorphism in the Pharmaceutical Industry’, Wiley-VCH. Weinheim 2006 (Chapter 6: X-Ray Diffraction, Chapter 6: Vibrational Spectroscopy, Chapter 3: Thermal Analysis, Chapter 9: Water Vapour Sorption, and references therein); and H. G. Brittain, ‘Polymorphism in Pharmaceutical Solids, Vol. 95, Marcel Dekker Inc., New York 1999 (Chapter 6 and references therein).

Where [4] appears, read: relative humidity range 0-80% rh.
The mark [5] stands for this setting: relative humidity range 90-98% rh.

With `C=CC(=O)N1CCC(F)(CNc2ncnc(N)c2-c2ccc(Oc3ccccc3)cc2)CC1` [Free base form A1, 1-(4-{[6-Amino-5-(4-phenoxy-phenyl)-pyrimidin-4-ylamino]-methyl}-4-fluoro-piperidin-1-yl)-propenone], the thermodynamic solubility (in general, the concentration in solution at equilibrium with solid) at 24 h in data set [1] (FaSSIF (Fasted-State Simulated Intestinal Fluid), pH 6.5, fassif, Fasted-State Simulated Intestinal Fluid pH 6.5, read-out: Thermodynamic solubility FaSSIF pH 6.5) is ~17 µg/mL (≈ 38 µM); in data set [1] (USP Phosphate buffer, pH 7.4, aqueous buffer, USP Phosphate buffer pH 7.4, read-out: Thermodynamic solubility PBS buffer 7.4), ~1 µg/mL (≈ 2.23 µM). For the same compound, the “Dissolution levels in FaSSIF pH 6.5” value in data set [2] (30 min) is 16 μg/mL; in data set [2] (60 min) it was 17 μg/mL; in data set [2] (120 min (2 h)), 17 μg/mL; in data set [2] (120 min (2 h), listed as form A1), “approx. 17 μg/mL”. Moreover, the “Hygroscopicity classification acc. to Ph. Eur. criteria (section 5.11.)” value in data set [3] is listed as “slightly hygroscopic”. The Water uptake levels in data set [3] (setting [4]) is listed as ≤ 1 % m/m; in data set [3] (setting [5]) it was ≤ 2 % m/m.

Consider `C=CC(=O)N1CCC(F)(CNc2ncnc(N)c2-c2ccc(Oc3ccccc3)cc2)CC1` [Free base form A2, 1-(4-{[6-Amino-5-(4-phenoxy-phenyl)-pyrimidin-4-ylamino]-methyl}-4-fluoro-piperidin-1-yl)-propenone], for which the “Thermodynamic solubility FaSSIF pH 6.5” value in data set [1] (Fasted-State Simulated Intestinal Fluid pH 6.5) is listed as 10 μg/mL; in data set [1] (Fasted-State Simulated Intestinal Fluid pH 6.5, listed as form A2) it was “approx. 10 μg/mL”. Moreover, the “Thermodynamic solubility PBS buffer 7.4” value is 2 µg/mL in data set [1] (USP Phosphate buffer pH 7.4) and “approx. 2 μg/mL” in data set [1] (USP Phosphate buffer pH 7.4, listed as form A2). For the same compound, the “Dissolution levels in FaSSIF pH 6.5” value in data set [2] (30 min) is given as 7 μg/mL; in data set [2] (60 min), 8 μg/mL; in data set [2] (120 min (2 h)), 8 μg/mL; in data set [2] (120 min (2 h), listed as form A2), “approx. 8 μg/mL”. In data set [3], the “Hygroscopicity classification acc. to Ph. Eur. criteria (section 5.11.)” value is on record as “slightly hygroscopic”. In addition, the Water uptake levels in data set [3] (setting [4]) was ≤ 1 % m/m; in data set [3] (setting [5]), ≤ 2 % m/m.

For `C=CC(=O)N1CCC(F)(CNc2ncnc(N)c2-c2ccc(Oc3ccccc3)cc2)CC1` [Fumarate-NF1, 1-(4-{[6-Amino-5-(4-phenoxy-phenyl)-pyrimidin-4-ylamino]-methyl}-4-fluoro-piperidin-1-yl)-propenone], the results for the “Dissolution levels in FaSSIF pH 6.5” value in data set [2] (30 min) and in data set [2] (60 min) were 14 μg/mL and 18 μg/mL, respectively. In addition, the “Dissolution level (2 h) in FaSSIF, factor higher than A1” value (“Dissolution level (2 h) in FaSSIF” for short) in data set [2] (listed as Fumarate salt form NF1) is on record as ~2. In addition, the “Hygroscopicity classification acc. to Ph. Eur. criteria (section 5.11.)” value in data set [3] was “slightly hygroscopic”. Further, the Water uptake levels is ≤ 1 % m/m in data set [3] (setting [4]) and ≥ 5 % m/m in data set [3] (setting [5]).

With `C=CC(=O)N1CCC(F)(CNc2ncnc(N)c2-c2ccc(Oc3ccccc3)cc2)CC1` [HBr-NF1, 1-(4-{[6-Amino-5-(4-phenoxy-phenyl)-pyrimidin-4-ylamino]-methyl}-4-fluoro-piperidin-1-yl)-propenone], the entries for the “Dissolution levels in FaSSIF pH 6.5” value in data set [2] (30 min) and in data set [2] (60 min) were 23 μg/mL and 27 μg/mL, respectively. Further, in data set [2], the “Dissolution level (2 h) in FaSSIF” value is listed as ~3. Moreover, the “Hygroscopicity classification acc. to Ph. Eur. criteria (section 5.11.)” value in data set [3] is listed as “slightly hygroscopic”. Further, the values for the Water uptake levels in data set [3] (setting [4]) and in data set [3] (setting [5]) were ≤ 1 % m/m and ≤ 5 % m/m, respectively.

`C=CC(=O)N1CCC(F)(CNc2ncnc(N)c2-c2ccc(Oc3ccccc3)cc2)CC1` [HBr-NF2, 1-(4-{[6-Amino-5-(4-phenoxy-phenyl)-pyrimidin-4-ylamino]-methyl}-4-fluoro-piperidin-1-yl)-propenone]: the “Hygroscopicity classification acc. to Ph. Eur. criteria (section 5.11.)” value in data set [3] is reported as “slightly hygroscopic”. Moreover, the Water uptake levels in data set [3] (setting [4]) is reported as ≤ 1 % m/m; in data set [3] (setting [5]), ≥ 5 % m/m.

On to `C=CC(=O)N1CCC(F)(CNc2ncnc(N)c2-c2ccc(Oc3ccccc3)cc2)CC1` [HCl-NF1, 1-(4-{[6-Amino-5-(4-phenoxy-phenyl)-pyrimidin-4-ylamino]-methyl}-4-fluoro-piperidin-1-yl)-propenone], for which the “Dissolution levels in FaSSIF pH 6.5” value in data set [2] (30 min) turned out to be 55 μg/mL; in data set [2] (60 min), 43 μg/mL. In addition, in data set [2], the “Dissolution level (2 h) in FaSSIF” value was ~4. In addition, the “Hygroscopicity classification acc. to Ph. Eur. criteria (section 5.11.)” value in data set [3] is on record as “slightly hygroscopic”. Besides, the Water uptake levels in data set [3] (setting [4]) was ≤ 1 % m/m; in data set [3] (setting [5]) it was ≤ 5 % m/m.

Regarding `C=CC(=O)N1CCC(F)(CNc2ncnc(N)c2-c2ccc(Oc3ccccc3)cc2)CC1` [Maleate-NF1, 1-(4-{[6-Amino-5-(4-phenoxy-phenyl)-pyrimidin-4-ylamino]-methyl}-4-fluoro-piperidin-1-yl)-propenone], the “Hygroscopicity classification acc. to Ph. Eur. criteria (section 5.11.)” value in data set [3] is on record as “slightly hygroscopic”. The values for the Water uptake levels in data set [3] (setting [4]) and in data set [3] (setting [5]) were ≤ 1 % m/m and ≤ 5 % m/m, respectively.

As to `C=CC(=O)N1CCC(F)(CNc2ncnc(N)c2-c2ccc(Oc3ccccc3)cc2)CC1` [Mesylate-NF1, 1-(4-{[6-Amino-5-(4-phenoxy-phenyl)-pyrimidin-4-ylamino]-methyl}-4-fluoro-piperidin-1-yl)-propenone], the “Hygroscopicity classification acc. to Ph. Eur. criteria (section 5.11.)” value in data set [3] is “slightly hygroscopic”. Also, the values for the Water uptake levels in data set [3] (setting [4]) and in data set [3] (setting [5]) were ≤ 1 % m/m and ≤ 5 % m/m, respectively.

In the case of `C=CC(=O)N1CCC(F)(CNc2ncnc(N)c2-c2ccc(Oc3ccccc3)cc2)CC1` [Oxalate-NF1, 1-(4-{[6-Amino-5-(4-phenoxy-phenyl)-pyrimidin-4-ylamino]-methyl}-4-fluoro-piperidin-1-yl)-propenone], the figures for the “Dissolution levels in FaSSIF pH 6.5” value in data set [2] (30 min) and in data set [2] (60 min) were 22 μg/mL and 39 μg/mL, respectively. In data set [2] (listed as Oxalate salt form NF1), the “Dissolution level (2 h) in FaSSIF” value is ~4. Also, the “Hygroscopicity classification acc. to Ph. Eur. criteria (section 5.11.)” value in data set [3] is on record as “slightly hygroscopic”. In addition, the Water uptake levels in data set [3] (setting [4]) is on record as ≤ 1 % m/m; in data set [3] (setting [5]) it was ≤ 5 % m/m.
